Measured values: patent publication US20230075521A1, “RESVERATROL PHARMACEUTICAL COMPOSITIONS AND METHODS OF USE THEREOF” (priority 2021, published 2023)

Columns and labels:
3×Tg-AD mice = assay: Behavior battery, long-term prophylactic treatment; format: in vivo, mouse; conditions: 50 mg/kg oral, at 6 or 10 months of age
Method: For long-term prophylactic studies, a cohort of 30 mice was used (50% males and females). […] JOTROL™ and RSV were prepared under red light and administered using a red syringe and metal gavage to prevent light exposure. Mice were treated 5 days a week for 9 months beginning at 4 months of age (prior to disease development). As detailed below, a battery of behavioral tests was conducted, including Y-maze spontaneous alternation, open field, rotarod, novel object recognition, Barnes maze, and object location memory. A battery of behavior tests designed to test motor coordination skills, anxiety, spatial learning and reference memory was performed on all long-term-treated mice. Motor coordination was evaluated using rotarod. Anxiety was evaluated by open field and elevated 0-maze tests. […] Motor coordination was assessed by the latency to fall on the very first trial between treatment groups. Motor learning was measured both within and between sub-jects by comparing the first trial with subsequent trials and is evident as an increased latency to fall over time. […] Distance, velocity, and time in center versus periphery were recorded and analyzed. Anxiety-related behavior can be determined by the duration spent in the center of the field versus the periphery. […] Total arm entries and percent of spontaneous alternations were recorded. […]

[1] = tested on: AD-related gene expression; assay: RT-qPCR of brain regions, long-term treatment; format: in vivo, 3×Tg-AD mouse; conditions: 3×Tg-AD mice, 50 mg/kg, 9 months
Method: At study endpoints (age 15 months for sub-chronic study, age 13 months for long-term study), mice were anaesthetized with isoflurane and blood was collected by transcardial puncture. Blood was stored on ice and then centrifuged at 10,000×g at 4° C. for 10 min to collect serum and stored at −80° C. until use. The brain was then extracted and quickly dissected on ice to collect prefrontal cortex (PFC), hippocampus, entorhinal cortex (ERC), and cerebellum, which were immediately frozen in liquid nitrogen. The samples were stored at −80° C. until processed for RNA or protein extraction. For each mouse, brain regions from one hemisphere were used for RNA preparation and qPCR and sections from the other hemisphere were used for protein work including ELISAs.

Oc1ccc(/C=C/c2cc(O)cc(O)c2)cc1 [RSV, (trans-)resveratrol]
Y-maze spontaneous alternation performance (3×Tg-AD mice): No significant group differences | Adam10 expression in PFC, increase vs vehicle [1]: 20.44%
